Measured values: patent US12459918B2, “Isoquinolinone derivatives serving as rock protein kinase inhibitors and use thereof” (GUANGZHOU OCUSUN OPHTHALMIC BIOTECHNOLOGY CO., LTD., priority 2019, dated 2025)

Tested on: New Zealand rabbits with normal intraocular pressure
Assay: Reduction of intraocular pressure by repeated eye-drop administration for 14 days, experiment operation 1
Type: in vivo
Settings: for Change of intraocular pressure: negative control minus group
Text: Experimental example 4. Experiment on reduction of intraocular pressure and ocular toxicity of New Zealand rabbits with normal intraocular pressure by repeated eye-drop administration for 14 days
The intraocular pressure reduction action and the potential ocular toxicity of compound 63 were explored by 14 days of repeated eye-drop administration in rabbits with normal intraocular pressure.
Male New Zealand rabbits, aged 97-127 days, weighted 2.6-3.5 kg, purchased from PizhouDongfang Breeding Co. Ltd.
The male New Zealand rabbits were randomly divided into 7 groups, with 6 rabbits per group. Animals were randomly divided according to body weight Animals in 1-7 groups were eye-dropped with solvent/control sample/test sample in both eyes, the volume of the administration was all 50 μL/eye, once per day for 14 consecutive days, and the day of the administration was recorded as Day 1. On Day 1, intraocular pressure of the animals was measured before the administration and in 1, 2, 4, 6, 8 and 10 hours after the administration, respectively; on Days 2-14, intraocular pressure of the animals was measured in 1 hour after daily administration for the group administered with K-115, and intraocular pressure of the animal was measured in 4 hours after daily administration for the other groups.

[1] = 2.0 mg/mL once per day, Day 2, 4 hours after daily administration
[2] = 2.0 mg/mL once per day, Day 3, 4 hours after daily administration
[3] = 2.0 mg/mL once per day, Day 4, 4 hours after daily administration
[4] = 2.0 mg/mL once per day, Day 5, 4 hours after daily administration
[5] = 2.0 mg/mL once per day, Day 6, 4 hours after daily administration
[6] = 2.0 mg/mL once per day, Day 7, 4 hours after daily administration
[7] = 4.0 mg/mL once per day, Day 2, 4 hours after daily administration
[8] = 4.0 mg/mL once per day, Day 3, 4 hours after daily administration
[9] = 4.0 mg/mL once per day, Day 4, 4 hours after daily administration
[10] = 4.0 mg/mL once per day, Day 5, 4 hours after daily administration
[11] = 4.0 mg/mL once per day, Day 6, 4 hours after daily administration
[12] = 4.0 mg/mL once per day, Day 7, 4 hours after daily administration
[13] = 8.0 mg/mL once per day, Day 2, 4 hours after daily administration
[14] = 8.0 mg/mL once per day, Day 3, 4 hours after daily administration
[15] = 8.0 mg/mL once per day, Day 4, 4 hours after daily administration
[16] = 8.0 mg/mL once per day, Day 5, 4 hours after daily administration
[17] = 8.0 mg/mL once per day, Day 6, 4 hours after daily administration
[18] = 8.0 mg/mL once per day, Day 7, 4 hours after daily administration

## Cc1ccc(C(=O)OCn2cc(C)c3c(S(=O)(=O)N4CC[C@H](N)C4)cccc3c2=O)c(C)c1 [Compound 63]
1.0 mg/mL, Day 1, before administration
  Change of intraocular pressure: −0.05 mmHg
2.0 mg/mL both eyes, Day 1, 1 hour after administration
  Mean intraocular pressure of both eyes: 8.56 mmHg
2.0 mg/mL both eyes, Day 1, 2 hours after administration
  Mean intraocular pressure of both eyes: 7.47 mmHg
2.0 mg/mL both eyes, Day 1, 4 hours after administration
  Mean intraocular pressure of both eyes: 7.47 mmHg
2.0 mg/mL both eyes, Day 1, 6 hours after administration
  Mean intraocular pressure of both eyes: 7.25 mmHg
2.0 mg/mL both eyes, Day 1, 8 hours after administration
  Mean intraocular pressure of both eyes: 8.44 mmHg
2.0 mg/mL both eyes, Day 1, 10 hours after administration
  Mean intraocular pressure of both eyes: 9.67 mmHg
2.0 mg/mL both eyes, Day 1, before administration
  Mean intraocular pressure of both eyes: 9.67 mmHg
[1]
  Mean intraocular pressure of both eyes: 7.03 mmHg
  Change of intraocular pressure: 4.05 mmHg
[2]
  Mean intraocular pressure of both eyes: 7.25 mmHg
  Change of intraocular pressure: 3.14 mmHg
[3]
  Mean intraocular pressure of both eyes: 6.86 mmHg
  Change of intraocular pressure: 3.75 mmHg
[4]
  Mean intraocular pressure of both eyes: 6.47 mmHg
  Change of intraocular pressure: 4.5 mmHg
[5]
  Mean intraocular pressure of both eyes: 5.92 mmHg
  Change of intraocular pressure: 3.39 mmHg
[6]
  Mean intraocular pressure of both eyes: 5.78 mmHg
  Change of intraocular pressure: 4.28 mmHg
2.0 mg/mL once per day, Day 8, 4 hours after daily administration
  Change of intraocular pressure: 4.53 mmHg
2.0 mg/mL once per day, Day 9, 4 hours after daily administration
  Change of intraocular pressure: 3.72 mmHg
2.0 mg/mL once per day, Day 10, 4 hours after daily administration
  Change of intraocular pressure: 3.81 mmHg
2.0 mg/mL once per day, Day 11, 4 hours after daily administration
  Change of intraocular pressure: 3.66 mmHg
2.0 mg/mL once per day, Day 12, 4 hours after daily administration
  Change of intraocular pressure: 3.5 mmHg
2.0 mg/mL once per day, Day 13, 4 hours after daily administration
  Change of intraocular pressure: 4.28 mmHg
2.0 mg/mL once per day, Day 14, 4 hours after daily administration
  Change of intraocular pressure: 3.91 mmHg
2.0 mg/mL, Day 1, 1 hour after administration
  Change of intraocular pressure: 1.75 mmHg
2.0 mg/mL, Day 1, 2 hours after administration
  Change of intraocular pressure: 3.5 mmHg
2.0 mg/mL, Day 1, 4 hours after administration
  Change of intraocular pressure: 3.84 mmHg
2.0 mg/mL, Day 1, 6 hours after administration
  Change of intraocular pressure: 4.69 mmHg
2.0 mg/mL, Day 1, 8 hours after administration
  Change of intraocular pressure: 4.53 mmHg
2.0 mg/mL, Day 1, 10 hours after administration
  Change of intraocular pressure: 4.75 mmHg
2.0 mg/mL, Day 1, before administration
  Change of intraocular pressure: 0.22 mmHg
4 mg/mL both eyes, Day 1, 1 hour after administration
  Mean intraocular pressure of both eyes: 10.44 mmHg
4 mg/mL both eyes, Day 1, 2 hours after administration
  Mean intraocular pressure of both eyes: 7.81 mmHg
4 mg/mL both eyes, Day 1, 4 hours after administration
  Mean intraocular pressure of both eyes: 6.47 mmHg
4 mg/mL both eyes, Day 1, 6 hours after administration
  Mean intraocular pressure of both eyes: 6.22 mmHg
4 mg/mL both eyes, Day 1, 8 hours after administration
  Mean intraocular pressure of both eyes: 7.33 mmHg
4 mg/mL both eyes, Day 1, 10 hours after administration
  Mean intraocular pressure of both eyes: 8.64 mmHg
4 mg/mL both eyes, Day 1, before administration
  Mean intraocular pressure of both eyes: 9.67 mmHg
[7]
  Mean intraocular pressure of both eyes: 6.53 mmHg
  Change of intraocular pressure: 4.55 mmHg
[8]
  Mean intraocular pressure of both eyes: 5.58 mmHg
  Change of intraocular pressure: 4.81 mmHg
[9]
  Mean intraocular pressure of both eyes: 5.53 mmHg
  Change of intraocular pressure: 5.08 mmHg
[10]
  Mean intraocular pressure of both eyes: 6.61 mmHg
  Change of intraocular pressure: 4.36 mmHg
[11]
  Mean intraocular pressure of both eyes: 5.47 mmHg
  Change of intraocular pressure: 3.84 mmHg
[12]
  Mean intraocular pressure of both eyes: 5.56 mmHg
  Change of intraocular pressure: 4.5 mmHg
4.0 mg/mL once per day, Day 8, 4 hours after daily administration
  Change of intraocular pressure: 4.53 mmHg
4.0 mg/mL once per day, Day 9, 4 hours after daily administration
  Change of intraocular pressure: 3.97 mmHg
4.0 mg/mL once per day, Day 10, 4 hours after daily administration
  Change of intraocular pressure: 4.67 mmHg
4.0 mg/mL once per day, Day 11, 4 hours after daily administration
  Change of intraocular pressure: 3.86 mmHg
4.0 mg/mL once per day, Day 12, 4 hours after daily administration
  Change of intraocular pressure: 3.64 mmHg
4.0 mg/mL once per day, Day 13, 4 hours after daily administration
  Change of intraocular pressure: 4.36 mmHg
4.0 mg/mL once per day, Day 14, 4 hours after daily administration
  Change of intraocular pressure: 4.64 mmHg
4 mg/mL, Day 1, 1 hour after administration
  Change of intraocular pressure: −0.13 mmHg
4 mg/mL, Day 1, 2 hours after administration
  Change of intraocular pressure: 3.16 mmHg
4 mg/mL, Day 1, 4 hours after administration
  Change of intraocular pressure: 4.84 mmHg
4 mg/mL, Day 1, 6 hours after administration
  Change of intraocular pressure: 5.72 mmHg
4 mg/mL, Day 1, 8 hours after administration
  Change of intraocular pressure: 5.64 mmHg
4 mg/mL, Day 1, 10 hours after administration
  Change of intraocular pressure: 5.78 mmHg
4 mg/mL, Day 1, before administration
  Change of intraocular pressure: 0.22 mmHg
8.0 mg/mL both eyes, Day 1, 1 hour after administration
  Mean intraocular pressure of both eyes: 7.69 mmHg
8.0 mg/mL both eyes, Day 1, 2 hours after administration
  Mean intraocular pressure of both eyes: 6.39 mmHg
8.0 mg/mL both eyes, Day 1, 4 hours after administration
  Mean intraocular pressure of both eyes: 7.06 mmHg
8.0 mg/mL both eyes, Day 1, 6 hours after administration
  Mean intraocular pressure of both eyes: 7.11 mmHg
8.0 mg/mL both eyes, Day 1, 8 hours after administration
  Mean intraocular pressure of both eyes: 7.22 mmHg
8.0 mg/mL both eyes, Day 1, 10 hours after administration
  Mean intraocular pressure of both eyes: 7.97 mmHg
8.0 mg/mL both eyes, Day 1, before administration
  Mean intraocular pressure of both eyes: 10.17 mmHg
[13]
  Mean intraocular pressure of both eyes: 6.33 mmHg
  Change of intraocular pressure: 4.75 mmHg
[14]
  Mean intraocular pressure of both eyes: 5.78 mmHg
  Change of intraocular pressure: 4.61 mmHg
[15]
  Mean intraocular pressure of both eyes: 5.97 mmHg
  Change of intraocular pressure: 4.64 mmHg
[16]
  Mean intraocular pressure of both eyes: 6.42 mmHg
  Change of intraocular pressure: 4.55 mmHg
[17]
  Mean intraocular pressure of both eyes: 5.56 mmHg
  Change of intraocular pressure: 3.75 mmHg
[18]
  Mean intraocular pressure of both eyes: 5.28 mmHg
  Change of intraocular pressure: 4.78 mmHg
8.0 mg/mL once per day, Day 8, 4 hours after daily administration
  Change of intraocular pressure: 5.59 mmHg
8.0 mg/mL once per day, Day 9, 4 hours after daily administration
  Change of intraocular pressure: 4.25 mmHg
8.0 mg/mL once per day, Day 10, 4 hours after daily administration
  Change of intraocular pressure: 4.19 mmHg
8.0 mg/mL once per day, Day 11, 4 hours after daily administration
  Change of intraocular pressure: 4.16 mmHg
8.0 mg/mL once per day, Day 12, 4 hours after daily administration
  Change of intraocular pressure: 3.97 mmHg
8.0 mg/mL once per day, Day 13, 4 hours after daily administration
  Change of intraocular pressure: 4.72 mmHg
8.0 mg/mL once per day, Day 14, 4 hours after daily administration
  Change of intraocular pressure: 4.03 mmHg
8.0 mg/mL, Day 1, 1 hour after administration
  Change of intraocular pressure: 2.62 mmHg
8.0 mg/mL, Day 1, 2 hours after administration
  Change of intraocular pressure: 4.58 mmHg
8.0 mg/mL, Day 1, 4 hours after administration
  Change of intraocular pressure: 4.25 mmHg
8.0 mg/mL, Day 1, 6 hours after administration
  Change of intraocular pressure: 4.83 mmHg
8.0 mg/mL, Day 1, 8 hours after administration
  Change of intraocular pressure: 5.75 mmHg
8.0 mg/mL, Day 1, 10 hours after administration
  Change of intraocular pressure: 6.45 mmHg
8.0 mg/mL, Day 1, before administration
  Change of intraocular pressure: −0.28 mmHg
All test doses (0.5-8.0 mg/mL), compared with K-115
  Efficacy of a single dose (highest hypotensive effect and action duration): superior efficacy
Dose of 0.5 mg/mL
  Hypotensive effect after 14 days of continuous administration: maintain a significant hypotensive effect
